Measured values reported in patent publication US10265310B2, “6-membered cyclic amines or lactames substituted with urea and phenyl” (GRÜNENTHAL GMBH, priority 2016, dated 2019).

Assays:
FPR1 = FPR1 (Homo sapiens (Human), UniProt P21462); experiment: Agonistic activity (calcium FLIPR) in hFPR1-Gα15-CHO cells; assay type: cell-based; details: FLIPR Calcium 5 dye fluorescence, agonistic response
In short: (§1)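 CHO cells expressing hFPR1-Gα15 or hFPR2-Aq were plated 18 hours, then loaded with Calcium 5 dye (pH 7.4, probenecid) for 30 minutes at 37° C. Compounds (final 10 μM to 100 pM, 11 half-log points) were added on FLIPR, with fluorescence followed for 5 minutes. EC50 came from the rise over basal relative to no-compound wells.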

FPR2 = FPR2 (Homo sapiens (Human), UniProt P25090); experiment: Agonistic activity (calcium FLIPR) in hFPR2-Aq-CHO cells; assay type: cell-based; details: FLIPR Calcium 5 dye fluorescence, agonistic response
Sequence of FPR2 (P25090 whole entry): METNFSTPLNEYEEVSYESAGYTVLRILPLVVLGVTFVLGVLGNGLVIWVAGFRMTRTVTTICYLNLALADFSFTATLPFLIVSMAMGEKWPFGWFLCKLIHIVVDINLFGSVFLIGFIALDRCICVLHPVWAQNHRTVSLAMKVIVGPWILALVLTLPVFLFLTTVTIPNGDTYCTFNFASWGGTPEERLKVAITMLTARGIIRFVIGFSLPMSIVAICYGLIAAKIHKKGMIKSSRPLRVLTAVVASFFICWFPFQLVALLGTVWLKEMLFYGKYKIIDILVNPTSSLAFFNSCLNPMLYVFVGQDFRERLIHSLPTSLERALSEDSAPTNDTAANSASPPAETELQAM
In short: as §1

Sequence of FPR1 (P21462 whole entry): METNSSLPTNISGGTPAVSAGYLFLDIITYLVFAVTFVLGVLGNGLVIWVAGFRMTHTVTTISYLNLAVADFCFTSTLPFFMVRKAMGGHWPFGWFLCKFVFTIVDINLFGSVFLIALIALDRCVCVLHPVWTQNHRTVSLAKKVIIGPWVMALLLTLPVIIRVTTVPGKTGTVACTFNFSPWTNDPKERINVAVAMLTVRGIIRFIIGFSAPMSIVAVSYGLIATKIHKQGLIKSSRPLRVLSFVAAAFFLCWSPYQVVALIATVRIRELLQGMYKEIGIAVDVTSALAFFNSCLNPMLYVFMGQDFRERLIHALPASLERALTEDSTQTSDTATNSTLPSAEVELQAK

Row | Compound | EC50 (FPR1) [nM] | EC50 (FPR2) [nM]
1 | COCCN1CC(NC(=O)Nc2ccc(Cl)cc2)C(c2ccc(OC)cc2F)CC1=O (single isomer, unassigned; ent2) [Example 60, trans-ent2-1-(4-Chlorophenyl)-3-[4-(2-fluoro-4-methoxy-phenyl)-1-(2-methoxy-ethyl)-6-oxo-piperidin-3-yl]-urea] | 1 to 1000 | 1 to 1000
2 | COc1ccc(C2CC(=O)N(CC(F)F)CC2NC(=O)Nc2ccc(Cl)cc2)c(F)c1 (single isomer, unassigned; ent2) [Example 62, trans-ent2-1-(4-Chlorophenyl)-3-[1-(2,2-difluoro-ethyl)-4-(2-fluoro-4-methoxy-phenyl)-6-oxo-piperidin-3-yl]-urea] | 1 to 1000 | 1 to 1000
3 | COCCN1CC(NC(=O)Nc2ccc(Cl)cc2)C(c2ccc(F)cc2F)CC1=O (single isomer, unassigned; ent2) [Example 64, trans-ent2-1-(4-Chlorophenyl)-3-[4-(2,4-difluoro-phenyl)-1-(2-methoxy-ethyl)-6-oxo-piperidin-3-yl]-urea] | 1 to 1000 | 1 to 1000
4 | O=C(Nc1ccc(Cl)cc1)NC1CN(CC(F)F)C(=O)CC1c1ccc(F)cc1F (single isomer, unassigned; ent2) [Example 66, trans-ent2-1-(4-Chlorophenyl)-3-[1-(2,2-difluoro-ethyl)-4-(2,4-difluoro-phenyl)-6-oxo-piperidin-3-yl]-urea] | 1 to 1000 | 1 to 1000
5 | COc1ccc([C@@H]2CC(=O)N(C)C[C@H]2NC(=O)Nc2ccc(Cl)cc2)cc1 (stereo in doubt) [Example 7, rac-trans-1-(4-chlorophenyl)-3-(4-(4-methoxyphenyl)-1-methyl-6-oxopiperidin-3-yl)urea] | < 1 | < 1
6 | COc1ccc([C@H]2CC(=O)N(C)C[C@@H]2NC(=O)Nc2ccc(Cl)cc2)cc1 (stereo in doubt) [Example 10, trans-ent1-(4-chlorophenyl)-3-(4-(4-methoxyphenyl)-1-methyl-6-oxopiperidin-3-yl)urea] | < 1 | < 1
7 | COc1ccc([C@@H]2CC(=O)N(C)C[C@H]2NC(=O)Nc2ccc(Cl)cc2)cc1 (stereo in doubt) [Example 11, trans-ent2-(4-chlorophenyl)-3-(4-(4-methoxyphenyl)-1-methyl-6-oxopiperidin-3-yl)urea] | 1 to 1000 | 1 to 1000
8 | ent1-1-(4-chlorophenyl)-3-(4-(2-fluoro-4-methoxyphenyl)piperidin-3-yl)urea [Example 45] | 1 to 1000 | < 1

More lines, now with the values ahead:

Row | EC50 (FPR1) [nM] | EC50 (FPR2) [nM] | Compound
9 | 1 to 1000 | 1 to 1000 | O=C1CC(c2ccc(F)cc2F)C(NC(=O)Nc2ccc(Cl)cc2)CN1 (single isomer, unassigned; ent2) [Example 68, trans-ent2-1-(4-Chlorophenyl)-3-[4-(2,4-difluoro-phenyl)-6-oxo-piperidin-3-yl]-urea]
10 | 1 to 1000 | 1 to 1000 | COc1ccc(C2CC(=O)NCC2NC(=O)Nc2ccc(Cl)cc2)cc1 (single isomer, unassigned; ent2) [Example 77, trans-ent2-1-(4-chlorophenyl)-3-(4-(4-methoxyphenyl)-6-oxopiperidin-3-yl)urea]
11 | 1 to 1000 | 1 to 1000 | O=C(Nc1ccc(Cl)cc1)NC1CNCCC1c1ccccc1 (single isomer, unassigned; ent2) [Example 81, trans-ent2-1-(4-chlorophenyl)-3-(4-phenylpiperidin-3-yl)urea]
12 | 1 to 1000 | 1 to 1000 | O=C(Nc1ccc(Cl)cc1)NC1CN(C(=O)C2CC2)CCC1c1ccccc1 (single isomer, unassigned; ent2) [Example 84, trans-ent2-1-(4-chlorophenyl)-3-(1-(cyclopropanecarbonyl)-4-phenylpiperidin-3-yl)urea]
